# According to patent US10428134B2, “Immunoglobulins and uses thereof” (JANSSEN PHARMACEUTICA NV, priority 2016, dated 2019):
# Marks after values point to notes of the source that are not given here.
# How the values were obtained:
# [1] = target: cynomolgus monkey GCGR; assay: cynomolgus monkey glucagon receptor cAMP assay; format: cell-based; conditions: HEK293 cells
# Description: (§1) For each receptor assay, the clonal cells were seeded into 384-well plates at the appropriate densities ranging from 2000-5000 cells/per well. Compounds were diluted in HBSS supplemented with 5 mM HEPES, 0.1% BSA and 0.5 mM IBMX and added to the cells. […] Standard curves were included in each assay plate for back calculation of cAMP concentrations.
# [2] = Single-dose efficacy in DIO mice: IPGTT, fasting glucose, insulin; conditions: 0.3 nmol/kg s.c.
# [3] = target: T1, rat GCGR (Rattus norvegicus, UniProt P30082); assay: rat glucagon receptor cAMP assay; format: cell-based; conditions: HEK293 cells
# T1 construct: expressed in transfected cells
# Description: as §1
# [4] = OGTT after 8 days of treatment in DIO mice (glucose, insulin); format: in vivo, mouse; conditions: 0.3 nmol/kg s.c. every day
# Description: (§2) Compound 1 was evaluated for its ability to reduce foot intake and body weight and improve glucose homeostasis on repeat dosing in male DIO C57Bl/6 mice over a period of 8 days. Male DIO C57BL/6N mice (20 weeks of age, 14 weeks on high fat diet) were obtained from Taconic Laboratory. […] Animals were acclimated to the facility for at least one week prior to the start of the experiment.
# (§3) The day prior to dosing, mice were grouped based on individual body weights. At 3:00-4:00 pm for each of the next 8 days, animals and food intake were weighed. […] After 8 days, mice are fasted for 5 hours and then given a 2 g/kg bolus of glucose orally at t=0. At t=0, 30, 60, 90, and 120 minutes post glucose challenge blood glucose is measured and at t=0, 30, and 90 minutes blood in drawn to measure plasma insulin. […] All data are presented as the mean±SEM (FIGS. 8 and 9, and Tables 5-8).
# [5] = target: T2, human GCGR (Homo sapiens, UniProt P47871); assay: human glucagon receptor cAMP assay; format: cell-based; conditions: HEK293 cells
# T2 construct: expressed in transfected cells
# Description: as §1
# [6] = Repeat dosing in DIO mice: fasting glucose, insulin, FGF21, plasma lipids; format: in vivo, mouse; conditions: 0.3 nmol/kg s.c. daily
# Description: (§4) To control for the dosing frequency, all animals were dosed daily. Dosing frequency was determined on the basis of DIO mouse PK data for compound 2 and dulaglutide. Animals in the dulaglutide group received this drug daily. The vehicle-treated animals received vehicle daily. […] The day prior to initiating of dosing, animals were weighed and grouped by body weight. […].
# (§5) Beginning 24-hr after the first dosing, three groups of mice were pair-fed (PF) to the 1.0, 2.0, or 4.0 nmol/kg compound 2-treated animals. The amount of food in the hopper of pair-fed mice was adjusted to match the average food consumed in the previous 24 hours by mice in the compound treatment group to which they were being matched. All PF groups were dosed daily with vehicle. On the ninth day (or Day 10 for the pair-fed groups), animals were fasted for 6 hours and body weight and fasting glucose were measured. Blood was collected for measurements of insulin, FGF21 and plasma lipids. The food intake, body weight, body composition, fasting glucose, fasting insulin, fasting FGF21, and fasting plasma lipid data are shown in tables 20-26.
# [7] = Weight loss in DIO mice, chronic dosing: body weight; format: in vivo, mouse; conditions: 0.3 nmol/kg s.c. every day
# Description: as §2, §3
# [8] = target: T3, mouse GLP1R (Mus musculus, UniProt O35659); assay: mouse GLP1 receptor cAMP assay; format: cell-based; conditions: HEK293 cells
# T3 construct: expressed in transfected cells
# T3 sequence (O35659 22-463): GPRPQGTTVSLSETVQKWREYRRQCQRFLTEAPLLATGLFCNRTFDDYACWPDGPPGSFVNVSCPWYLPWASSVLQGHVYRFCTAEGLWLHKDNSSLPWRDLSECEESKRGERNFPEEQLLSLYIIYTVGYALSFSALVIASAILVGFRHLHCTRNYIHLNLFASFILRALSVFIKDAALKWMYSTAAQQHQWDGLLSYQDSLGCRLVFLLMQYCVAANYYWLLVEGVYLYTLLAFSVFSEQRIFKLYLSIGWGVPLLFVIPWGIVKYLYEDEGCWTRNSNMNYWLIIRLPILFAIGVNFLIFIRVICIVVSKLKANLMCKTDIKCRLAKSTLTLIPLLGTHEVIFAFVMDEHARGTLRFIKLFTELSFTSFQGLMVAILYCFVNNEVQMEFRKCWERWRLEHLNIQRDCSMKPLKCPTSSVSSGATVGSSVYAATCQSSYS
# Description: as §1
# [9] = Single-dose efficacy in DIO mice: food intake, body weight
# [10] = target: T4, mouse GCGR (Mus musculus, UniProt Q61606); assay: mouse glucagon receptor cAMP assay; format: cell-based; conditions: HEK293 cells
# T4 construct: expressed in transfected cells
# Description: as §1
# [11] = Fed blood glucose after 8 days of treatment in DIO mice; format: in vivo, mouse; conditions: 0.3 nmol/kg s.c. every day
# Description: as §2, §3
# [12] = Repeat dosing in DIO mice: food intake, body weight, body composition; format: in vivo, mouse; conditions: 0.3 nmol/kg s.c. daily
# Description: as §4, §5
# T4 sequence (Q61606 27-485): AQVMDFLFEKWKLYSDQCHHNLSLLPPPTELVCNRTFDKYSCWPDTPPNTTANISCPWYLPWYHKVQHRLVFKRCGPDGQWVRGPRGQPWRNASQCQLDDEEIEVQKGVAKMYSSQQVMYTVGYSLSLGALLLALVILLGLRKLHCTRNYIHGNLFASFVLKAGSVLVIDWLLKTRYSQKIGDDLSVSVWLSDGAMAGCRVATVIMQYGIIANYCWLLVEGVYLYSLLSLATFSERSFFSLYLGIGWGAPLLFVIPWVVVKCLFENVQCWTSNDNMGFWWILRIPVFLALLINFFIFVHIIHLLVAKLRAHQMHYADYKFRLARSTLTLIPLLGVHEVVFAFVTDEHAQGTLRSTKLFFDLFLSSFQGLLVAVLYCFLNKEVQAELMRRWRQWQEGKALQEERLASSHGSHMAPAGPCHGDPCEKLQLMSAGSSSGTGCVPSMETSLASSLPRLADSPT
# T2 sequence (P47871 26-477): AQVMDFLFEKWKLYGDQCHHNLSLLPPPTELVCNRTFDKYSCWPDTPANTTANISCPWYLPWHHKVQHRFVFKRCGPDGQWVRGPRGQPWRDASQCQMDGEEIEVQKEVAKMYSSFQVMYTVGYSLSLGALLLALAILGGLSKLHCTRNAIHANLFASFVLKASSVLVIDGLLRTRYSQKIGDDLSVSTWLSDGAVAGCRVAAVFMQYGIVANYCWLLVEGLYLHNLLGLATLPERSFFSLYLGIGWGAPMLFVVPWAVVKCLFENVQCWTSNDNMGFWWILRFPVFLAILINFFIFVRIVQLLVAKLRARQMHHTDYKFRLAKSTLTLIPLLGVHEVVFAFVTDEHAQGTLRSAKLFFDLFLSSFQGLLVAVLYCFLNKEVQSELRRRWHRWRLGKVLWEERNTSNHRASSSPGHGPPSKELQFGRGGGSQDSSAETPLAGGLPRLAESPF
# T1 sequence (P30082 27-485): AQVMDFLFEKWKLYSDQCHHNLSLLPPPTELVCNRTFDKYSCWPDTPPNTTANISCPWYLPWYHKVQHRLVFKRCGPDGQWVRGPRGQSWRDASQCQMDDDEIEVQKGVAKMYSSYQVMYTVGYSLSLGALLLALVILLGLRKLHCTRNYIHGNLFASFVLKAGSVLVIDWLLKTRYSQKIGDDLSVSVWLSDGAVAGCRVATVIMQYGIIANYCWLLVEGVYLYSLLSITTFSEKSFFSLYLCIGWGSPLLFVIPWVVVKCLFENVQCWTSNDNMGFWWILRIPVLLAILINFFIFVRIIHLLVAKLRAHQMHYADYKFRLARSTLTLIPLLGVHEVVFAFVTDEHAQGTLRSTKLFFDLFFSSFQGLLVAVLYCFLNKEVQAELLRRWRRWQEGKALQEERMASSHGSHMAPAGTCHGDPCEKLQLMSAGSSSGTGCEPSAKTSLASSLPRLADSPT
substance,measurement,setting,value
"Dulaglutide: the GLP1R agonist, dulaglutide [reference compound]",EC50,[1],> 100 nM
same,Plasma Insulin,[2]; 10 minutes post-glucose (IPGTT),1.7 ± 0.2 ng/mL
same,6 hour fasting Blood Glucose,[2]; 24 hours after treatment,140 ± 7 mg/dL
same,Blood Glucose Net AUC (IPGTT),[2]; 24 hours after treatment,8471 ± 1204
same,blood glucose during IPGTT,"[2]; 24 hours after treatment, 0 min",140 ± 7 mg/dL
same,blood glucose during IPGTT,"[2]; 24 hours after treatment, 10 min",264 ± 18 mg/dL
same,blood glucose during IPGTT,"[2]; 24 hours after treatment, 30 min",267 ± 22 mg/dL
same,blood glucose during IPGTT,"[2]; 24 hours after treatment, 60 min",228 ± 12 mg/dL
same,blood glucose during IPGTT,"[2]; 24 hours after treatment, 90 min",193 ± 9 mg/dL
same,Plasma Insulin,[2]; Pre-glucose (24 hours after treatment),1.6 ± 0.2 ng/mL
same,EC50,[3],> 100 nM
same,blood glucose Delta AUC (OGTT),[4],6668 ± 1846 mg/dl/120 min
same,blood glucose Total AUC (OGTT),[4],15758 ± 1054 mg/dl/120 min
same,blood glucose during OGTT,[4]; 0 min after glucose challenge,76 ± 9 mg/dL
same,insulin during OGTT,[4]; 0 min after glucose challenge,0.6 ± 0.1 ng/mL
same,blood glucose during OGTT,[4]; 30 min after glucose challenge,151 ± 14 mg/dL
same,insulin during OGTT,[4]; 30 min after glucose challenge,1.7 ± 0.2 ng/mL
same,blood glucose during OGTT,[4]; 60 min after glucose challenge,174 ± 17 mg/dL
same,blood glucose during OGTT,[4]; 90 min after glucose challenge,104 ± 10 mg/dL
same,insulin during OGTT,[4]; 90 min after glucose challenge,0.7 ± 0.2 ng/mL
same,blood glucose during OGTT,[4]; 120 min after glucose challenge,119 ± 9 mg/dL
same,EC50,[5],> 100 nM
same,plasma Free Fatty Acids,[6]; after repeated dosing,73.2 ± 12.0 µmol/L
same,plasma Free Glycerol,[6]; after repeated dosing,0.5 ± 0.1 mmol/L
same,plasma Total cholesterol,[6]; after repeated dosing,146.1 ± 3.3 mg/dL
same,plasma Triglycerides,[6]; after repeated dosing,24.1 ± 2.3 mg/dL
same,6 hour fasting Blood Glucose,[6]; after repeated dosing (9 days),123 ± 5 mg/dL
same,6 hour fasting Plasma Insulin,[6]; after repeated dosing (9 days),1.4 ± 0.2 ng/mL
same,6 hour fasting plasma FGF21,[6]; after repeated dosing (9 days),0.5 ± 0.1 ng/mL
same,body weight,[7]; day 0,45.9 ± 0.6 g
same,body weight,[7]; day 1,44.1 ± 0.6 g
same,body weight,[7]; day 2,42.2 ± 0.6 g
same,body weight,[7]; day 3,40.6 ± 0.6 g
same,body weight,[7]; day 4,39.3 ± 0.6 g
same,body weight,[7]; day 5,38.1 ± 0.7 g
same,body weight,[7]; day 6,37.1 ± 0.8 g
same,body weight,[7]; day 7,36.4 ± 1.0 g
same,body weight,[7]; day 8,36.5 ± 1.1 g
same,body weight,[7]; day −1,46.3 ± 0.6 g
same,EC50,[8],0.035 ± 0.002 nM
same,food intake,"[9]; 0.3 nmol/kg group, 24 hours pre-dose",3.1 ± 0.1 grams
same,Weight Change,"[9]; single s.c. dose 0.3 nmol/kg, 18 hours after treatment",−4.1 ± 0.3 %
same,food intake,"[9]; single s.c. dose 0.3 nmol/kg, 18 hours post-dose",1.5 ± 0.1*^ grams
same,EC50,[10],> 100 nM
same,fed Blood Glucose,[11],114 ± 13 mg/dL
same,body composition: Fat % of Body Weight,[12]; after repeated dosing,22.8 ± 1.2%
same,body composition: Fat Mass,[12]; after repeated dosing,7.6 ± 1.1 g
same,body composition: Lean % of Body Weight,[12]; after repeated dosing,61.0 ± 1.7%
same,body composition: Lean Mass,[12]; after repeated dosing,22.1 ± 0.3 g
same,daily food intake,[12]; day 0,3.1 ± 0.2 grams
same,percent body weight change,[12]; day 0,0.0%
same,daily food intake,[12]; day 1,1.5 ± 0.2 grams
same,percent body weight change,[12]; day 1,−3.7 ± 0.3%
same,daily food intake,[12]; day 2,1.3 ± 0.2 grams
same,percent body weight change,[12]; day 2,−6.2 ± 0.6%
same,daily food intake,[12]; day 3,1.7 ± 0.3 grams
same,percent body weight change,[12]; day 3,−7.8 ± 0.8%
same,daily food intake,[12]; day 4,1.9 ± 0.2 grams
same,percent body weight change,[12]; day 4,−9.2 ± 0.8%
same,daily food intake,[12]; day 5,2.1 ± 0.2 grams
same,percent body weight change,[12]; day 5,−10.1 ± 0.8%
same,daily food intake,[12]; day 6,2.2 ± 0.2 grams
same,percent body weight change,[12]; day 6,−10.2 ± 0.8%
same,daily food intake,[12]; day 7,2.3 ± 0.2 grams
same,percent body weight change,[12]; day 7,−10.7 ± 1.0%
same,daily food intake,[12]; day 8,2.9 ± 0.4 grams
same,percent body weight change,[12]; day 8,−11.1 ± 0.9%
same,daily food intake,[12]; day 9,2.5 ± 0.2 grams
same,percent body weight change,[12]; day 9,−13.1 ± 1.1%
